Experimental data as given in publication PMC7377239, “Cardiovascular Effects of Polychlorinated Biphenyls and Their Major Metabolites” (Environmental Health Perspectives, 2020).
Where two headings read alike, the source gives them in different places.

Tested on: iCell cardiomyocytes (human iPSC-derived cardiomyocytes)
Experiment: High-content imaging of cytotoxicity and mitochondrial integrity in iPSC-CMs
Type: cell-based
Conditions: Homo sapiens; for viability at 0.01 µM / activity at 0.01 µM / viability at 0.1 µM / activity at 0.1 µM / viability at 1 µM / activity at 1 µM / viability at 10 µM / activity at 10 µM / viability at 100 µM / activity at 100 µM: Cardiomyocyte, 0.00 µM = 100.00; for viability at 0.1 µM / activity at 0.1 µM: 0.10 µM; for minimal effective concentration: iPSC-CM
Method in brief: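 This assay measured cytotoxicity and mitochondrial integrity in iPSC cardiomyocytes held in 40μL maintenance medium. After compound exposure, a 2× staining solution with Hoechst 33342 (4μg/mL) and MitoTracker™ Orange (0.4μM) was applied for 15 min at 37°C. Cells were washed, fixed with 3.7% formaldehyde, imaged on DAPI and Cy3 channels, and scored in MetaXpress®.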

Oc1ccc(-c2cccc(Cl)c2)cc1Cl [4-OH PCB11]
viability at 0.01 µM (1.5 h, read-out: cm.cam.90min): 94.9% | activity at 0.01 µM (1.5 h, read-out: cm.mii.90min): 115% | activity at 0.01 µM (1.5 h, read-out: cm.mito.90min): 94.7% | viability at 0.01 µM (1.5 h, read-out: cm.tc.90min): 94.7% | viability at 0.1 µM (1.5 h, read-out: cm.cam.90min): 95% | activity at 0.1 µM (1.5 h, read-out: cm.mii.90min): 108% | activity at 0.1 µM (1.5 h, read-out: cm.mito.90min): 95% | viability at 0.1 µM (1.5 h, read-out: cm.tc.90min): 95% | viability at 1 µM (1.5 h, read-out: cm.cam.90min): 99.1% | activity at 1 µM (1.5 h, read-out: cm.mii.90min): 113% | activity at 1 µM (1.5 h, read-out: cm.mito.90min): 98.6% | viability at 1 µM (1.5 h, read-out: cm.tc.90min): 98.8% | viability at 10 µM (1.5 h, read-out: cm.cam.90min): 106% | activity at 10 µM (1.5 h, read-out: cm.mii.90min): 93.6% | activity at 10 µM (1.5 h, read-out: cm.mito.90min): 106% | viability at 10 µM (1.5 h, read-out: cm.tc.90min): 106% | viability at 100 µM (1.5 h, read-out: cm.cam.90min): 0.0234% | activity at 100 µM (1.5 h, read-out: cm.mii.90min): 157% | activity at 100 µM (1.5 h, read-out: cm.mito.90min): 0.0462% | viability at 100 µM (1.5 h, read-out: cm.tc.90min): 0.09% | viability at 0.01 µM (24 h, read-out: cm.cam.24hrs): 90.8% | activity at 0.01 µM (24 h, read-out: cm.mii.24hrs): 101% | activity at 0.01 µM (24 h, read-out: cm.mito.24hrs): 86.2% | viability at 0.01 µM (24 h, read-out: cm.tc.24hrs): 90.8% | viability at 0.1 µM (24 h, read-out: cm.cam.24hrs): 100% | activity at 0.1 µM (24 h, read-out: cm.mii.24hrs): 111% | activity at 0.1 µM (24 h, read-out: cm.mito.24hrs): 97.6% | viability at 0.1 µM (24 h, read-out: cm.tc.24hrs): 99.9% | viability at 1 µM (24 h, read-out: cm.cam.24hrs): 98.4% | activity at 1 µM (24 h, read-out: cm.mii.24hrs): 100% | activity at 1 µM (24 h, read-out: cm.mito.24hrs): 96.4% | viability at 1 µM (24 h, read-out: cm.tc.24hrs): 98.7% | viability at 10 µM (24 h, read-out: cm.cam.24hrs): 93.1% | activity at 10 µM (24 h, read-out: cm.mii.24hrs): 96.5% | activity at 10 µM (24 h, read-out: cm.mito.24hrs): 90.8% | viability at 10 µM (24 h, read-out: cm.tc.24hrs): 93.5% | viability at 100 µM (24 h, read-out: cm.cam.24hrs): 0.0471% | activity at 100 µM (24 h, read-out: cm.mii.24hrs): 1.84% | activity at 100 µM (24 h, read-out: cm.mito.24hrs): 0.024% | viability at 100 µM (24 h, read-out: cm.tc.24hrs): 0.11% | minimal effective concentration (1.5 h, read-out: cm.cam.90min POD): 27.7 µM | minimal effective concentration (1.5 h, read-out: cm.mii.90min POD): 32.7 µM | minimal effective concentration (1.5 h, read-out: cm.mito.90min POD): 40.1 µM | minimal effective concentration (1.5 h, read-out: cm.tc.90min POD): 36.2 µM | minimal effective concentration (24 h, read-out: cm.cam.24hrs POD): 8.57 µM | minimal effective concentration (24 h, read-out: cm.mii.24hrs POD): 43.2 µM | minimal effective concentration (24 h, read-out: cm.mito.24hrs POD): 7.94 µM | minimal effective concentration (24 h, read-out: cm.tc.24hrs POD): 8.62 µM
